This is an account of results in publication PMC9495854, “Novel Phenothiazine/Donepezil-like Hybrids Endowed with Antioxidant Activity for a Multi-Target Approach to the Therapy of Alzheimer’s Disease” (Antioxidants, 2022).

For one assay, the target named is T1, FAAH Human recombinant (Homo sapiens, UniProt O00519).
T1 construct: purchased Cayman Chemical
T1 sequence (O00519 1-579): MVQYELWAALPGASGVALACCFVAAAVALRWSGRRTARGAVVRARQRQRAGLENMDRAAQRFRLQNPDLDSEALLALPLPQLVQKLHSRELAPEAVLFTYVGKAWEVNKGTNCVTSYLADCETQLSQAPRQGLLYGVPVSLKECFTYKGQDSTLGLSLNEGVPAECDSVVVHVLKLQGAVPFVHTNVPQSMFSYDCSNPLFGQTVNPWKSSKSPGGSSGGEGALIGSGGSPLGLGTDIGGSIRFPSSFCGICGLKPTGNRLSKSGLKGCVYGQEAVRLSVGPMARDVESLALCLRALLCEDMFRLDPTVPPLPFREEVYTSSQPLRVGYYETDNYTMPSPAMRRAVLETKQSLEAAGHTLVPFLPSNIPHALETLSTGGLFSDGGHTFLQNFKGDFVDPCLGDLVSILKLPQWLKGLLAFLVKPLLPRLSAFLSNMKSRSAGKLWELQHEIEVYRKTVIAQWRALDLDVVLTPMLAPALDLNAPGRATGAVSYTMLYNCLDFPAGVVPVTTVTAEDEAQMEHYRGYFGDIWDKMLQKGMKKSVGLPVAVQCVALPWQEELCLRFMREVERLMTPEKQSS
Put plainly: FAAH inhibition, fluorometric assay. The assay is classed as biochemical. The note with it: mean ± SEM; read-out: hFAAH (IC50). How it is done: The fatty acid amide hydrolase inhibition was measured for the final compounds using 96-well black flat-bottom microtiter NBS plates (COSTAR flat black). The total volume was 150 µL: the single hybrid was pre-incubated at different concentrations with the enzyme (FAAH Human recombinant, Cayman Chemical, Ann Arbor, MI, USA) in the specific fluorometric assay buffer (tris-HCl 125 mM, Na2EDTA · 2H2O 1 mM, pH = 9.0) for ten minutes at RT, using an orbital shaker. A 50 μL solution of the substrate (7-amino-4-methyl-2H-1-benzopyran-2-one-5Z,8Z,11Z,14Z-eicosatetraen-amide, at a final concentration of 5 µM) was then added. The plates were then incubated for 1 h at 37 °C in a Tecan Infinite M1000 Pro (Tecan, Cernusco S.N., Italy), reading fluorescence values from each well every 30s (λex = 340 nm, λem = 450 nm). The inhibitor activity was expressed as relative fluorescence units (RFU), using the values obtained from control wells lacking the inhibitor and blank wells lacking both inhibitor and enzyme to calculate percent inhibition values for each well. IC50 values are expressed as mean ± SEM of at least two independent measurements performed in triplicate.

For a further assay, the system named is SH-SY5Y cells. The experiment in a line: DCFH-DA cell-based antioxidant assay (H2O2-induced oxidation), SH-SY5Y. Particulars: Homo sapiens, SHSY-5Y, 1 h compound, 100 μM H2O2, read-out: DCFDH-DA IC50 ± SEM SHSY-5Y. The method, then:
HepG2 cells were cultured in Eagle’s Minimum Essential Medium (MEM, Euroclone S.p.A., Pero, MI, Italy), supplemented with 10% Fetal Bovine Serum (FBS, Euroclone S.p.A., Pero, MI, Italy), 1% L-glutamine (Euroclone S.p.A., Pero, MI, Italy), 100 U/mL penicillin/streptomycin (Euroclone S.p.A., Pero, MI, Italy), 1% Non-Essential Amino Acids (NEAA, Euroclone S.p.A., Pero, MI, Italy). SH-SY5Y cells were grown in a 1:1 mixture of Dulbecco’s modified Eagle’s medium (DMEM)—high glucose (Euroclone S.p.A., Pero, MI, Italy) and Ham’s F12 Medium (Euroclone S.p.A., Pero, MI, Italy) supplemented with 10% FBS, 1% L-glutamine and 100 U/mL penicillin/streptomycin. For cell assays, cells were trypsinized using Trypsin-EDTA 1X in PBS (Euroclone S.p.A., Pero, MI, Italy).
According to a slightly modified procedure already reported in the literature, the generation of ROS was determined using an oxidation-sensitive fluorescent probe, 2′,7′-dichlorodihydrofluorescein diacetate (DCFH-DA, D6665; Sigma-Aldrich, St. Louis, MO, USA). Briefly, viable cells were seeded in a black 96-well cell culture plate (Costar, Sigma-Aldrich, St. Louis, MO, USA) and after 24 h were incubated with different concentrations (0.1–100 µM) of each compound for 1 h at 37 °C in 5% CO2. […] After washing using PBS, 100 μM H2O2 in medium without serum was added to each well and the cells were incubated for an additional 30 min. The formation of fluorescent dichlorofluorescein (DCF) due to oxidation of DCFH in the presence of ROS, was read at 530 nm using a microplate reader Tecan Infinite M1000 Pro (Tecan, Cernusco S.N., Italy) and DMSO medium was used for control cells. The results are expressed as mean ± SEM of at least three independent measurements in triplicate.

The nature of assay [1]: DPPH radical scavenging assay. The note with it: DPPH 100 µM in methanol, 30 min. How it is done:
A previously reported method (Blois) with some modifications (Mishra, Ojha, & Chaudhury, 2012) was used to carry out the DPPH assay in 96-well microtiter plates. Each tested compound was dissolved in methanol, after which a freshly prepared solution of DPPH in methanol (100 µM final concentration) was added. Following vigorous stirring, each mixture was left in the dark for 30 min at room temperature, after which absorbance values for each well were read at 520 nm using a spectrophotometric plate reader (VICTOR^3 V multilabel plate reader, PerkinElmer). Antioxidant activity was determined as RSA% (radical scavenging activity). The value was calculated using following equation: RSA% = 100 × [(Ao − Ai)/Ao], where Ao and Ai represent DPPH absorbance in absence or in presence of antioxidant, respectively. Antiradical curves for calculating the EC50 values were obtained by testing each compound at several concentrations. Values of all parameters are expressed as mean ± SEM of at least three independent measurements in triplicate.
(In general: DPPH is a stable violet radical that fades when it is reduced.)

In another assay the target is T2, Aβ1-40 aggregation (Homo sapiens, UniProt P05067).
T2 construct: purchased EZBiolab
The experiment in a line: Inhibition of Aβ40 aggregation, ThT fluorescence. Particulars: inhibitor 10 µM, Aβ40 30 µM, PBS pH 7.4, 2% HFIP, 2 h 25 °C; mean ± SEM. The assay is classed as biochemical. The method, then: ThT fluorescence in the presence of Aβ was measured for each compound according a previously described procedure. The samples were co-incubated and mixed in 96-well black, non-binding microplates (Greiner Bio-One GmbH, Frickenhausen, Germany), incubating Aβ40 (EZBiolab, Carmel, IN, USA) at a final concentration of 30 µM with each inhibitors at a final concentration of 10 µM in PBS (pH 7.4) containing 2% 1,1,1,3,3,3-hexafluoro-2-propanol (HFIP). After 2 h at 25 °C, a 25 µM ThT solution was added and fluorescence was determined using the multi-plate reader Tecan Infinite M1000 Pro (Tecan, Cernusco S.N., Italy). The results are reported as mean of three independent experiments ± SEM [13].

T2 sequence (P05067 672-711 limits assumed): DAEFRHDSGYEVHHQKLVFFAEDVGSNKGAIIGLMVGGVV

As to `O=C(Oc1ccc([N+](=O)[O-])cc1)N1CCN(Cc2cccc(Oc3ccccc3)c2)CC1` [JZL195, reference compound], at FAAH Human recombinant, the 50% inhibitory concentration (IC50) is 19 ± 3 nM. Turning to `O=c1c(O)c(-c2ccc(O)c(O)c2)oc2cc(O)cc(O)c12` [Quercetin, reference compound], the IC50 in the assay on SH-SY5Y cells was 5610 ± 400 nM. Take `O=C(O)c1cc(O)c(O)c(O)c1` [Gallic acid, reference compound]: the “EC50 (μmol/μmol of DPPH ± SEM)” value in assay [1] is on record as 0.059 ± 0.003 μmol/μmol of DPPH; in assay [1] (listed as gallic acid) it was 0.059 μmol/μmol of DPPH.

`COc1cc2c(cc1OC)C(=O)C(CC1CCN(Cc3ccccc3)CC1)C2` (centres unmarked) [Donepezil]: the “Aβ1-40 Aggregation (I% at 10 µM)” value on Aβ1-40 aggregation was 14% ± 7.

What is called IC50 is the concentration needed to halve the response being measured.
